Assay results as given in US9023876B2, “Compounds and methods for regulating integrins” (Adhaere Pharmaceuticals, Inc., priority 2010, dated 2015).

Key:
[1] = test system: WT B6 mice; assay: Thioglycollate-induced peritonitis, WT mice; type: in vivo, mouse; conditions: vs vehicle
Procedure: Thioglycollate-induced peritonitis was performed as previously described, using 8-10 week old WT B6 and CD11b^−/− B6 mice. Leukadherin agonists were administered thirty min prior to intra peritoneal (i.p.) thioglycollate (3%) injection. LA1 and LA2 ([…] of 20 mM solution in saline) were administered intra venously (i.v.). LA3 was administered i.p. (1 mL of 20 mM solution in saline). To evaluate peritoneal neutrophil recruitment, […], the peritoneal lavage was collected and the number of emigrated neutrophils was quantified using double positive cells for GR-1 and Mac-1 staining as described.
To determine the effects of LA1-3 on inflammatory responses in vivo, we monitored their effects on neutrophil recruitment upon acute thioglycollate-induced peritonitis in mice.

[2] = test system: K562 CD11b/CD18 cells; assay: Cell viability assay (MTS); type: cell-based; conditions: 24 h; concentrations as high as 50 μM
Procedure: Cell viability assay was performed as described. Briefly, K562 CD11b/CD18 cells (10,000/well) were incubated in 96 well plates (Corning, Corning, N.Y.) with increasing amounts of indicated compound for 24 h. The number of viable cells after 24 h was determined by using MTS reagent according to manufacturers protocol (Promega, Madison, Wis.) and using Spectramax M5 spectrophotometer (Molecular Devices) for reading of the assay plates. Data presented is representative of at least two independent experiments.

[3] = target: T1, mutant integrin CD11bE320A/CD18 (Homo sapiens, UniProt P11215, E336A); assay: Adhesion of K562 E320A cells to immobilized Fg; type: cell-based
T1 construct: expressed in transfected cells; host or cells: K562
Procedure: K562 cells (ATCC) stably transfected with wild-type integrin CD11b/CD18 (K562 CD11b/CD18) have been described previously. Mutant CD11bE320A has been described previously. K562 cells stably transfected with mutant integrin CD11bE320A/CD18 (K562 E320A) were generated according to literature protocols. All cell lines were maintained in Iscove's Modified Dulbecco's Medium (IMDM) supplemented with 10% heat-inactivated fetal bovine serum, 50 IU/ml penicillin and streptomycin and 0.5 mg/ml G418.
Cell adhesion assays with immobilized ligands were performed as previously described. Assays with all different K562 cell lines (K562, K562 CD11b/CD18 and K562 E320A) were performed in an identical fashion. Briefly, 384-well Highbind microtiter plates were coated with a 30 μL solution of ligand in Phosphate Buffered Saline, pH 7.4 containing 1 mM each of Ca^2+ and Mg^2+ ions (PBS^++) overnight at 4° C. Ligand Fg was coated at a concentration of […] and iC3b at […]. Heterodimer specific mAb IB4 (ascites) was coated at a 1:100 dilution. […] Cells remaining adherent were fixed using formaldehyde and were quantitated using imaging microscopy, as previously described. […]

[4] = target: T2, integrin CD11b/CD18 (Homo sapiens, UniProt P11215); assay: K562 cell adhesion assay, K562 CD11b/CD18 cells on immobilized fibrinogen (Fg); type: cell-based
T2 construct: expressed in transfected cells; host or cells: K562
Procedure: Cell adhesion assays with immobilized ligands were performed as previously described. Assays with all different K562 cell lines (K562, K562 CD11b/CD18 and K562 E320A) were performed in an identical fashion. Briefly, 384-well Highbind microtiter plates were coated with a 30 μL solution of ligand in Phosphate Buffered Saline, pH 7.4 containing 1 mM each of Ca^2+ and Mg^2+ ions (PBS^++) overnight at 4° C. Ligand Fg was coated at a concentration of […] and iC3b at […]. Heterodimer specific mAb IB4 (ascites) was coated at a 1:100 dilution. Subsequently, the non-specific sites in the wells were blocked by incubation with 1% non-fat milk in Tris Buffered Saline (TBS), pH 7.4, at room temperature for 1 h, except for the neutrophil assay, where the wells were blocked with TBS containing 1% gelatin. Next, the wells were washed three times with TBS. K562 cells were suspended in the assay buffer (TBS containing 1 mM each of Ca^2+ and Mg^2+ ions (TBS^++)) and were transferred to the ligand-coated wells (30,000 cells/well). Stock solution of the leukadherin family of small molecule agonists was prepared by dissolving the compounds in DMSO at a concentration of 2-10 mM. Final concentration of DMSO in the assay was approximately 1%. […] Cells remaining adherent were fixed using formaldehyde and were quantitated using imaging microscopy, as previously described. […]

## O=C(O)c1ccc(-c2ccc(/C=C3\SC(=S)N(Cc4ccccc4)C3=O)o2)cc1 [LA1]
[1]; TGC-induced peritonitis
  peritoneal neutrophil accumulation at 4 h and 12 h: significantly reduced
  peritoneal neutrophils after 24 h: comparable numbers
[1]; WT mice, given 30 min prior to thioglycollate, 4 h
  reduction of peritoneal neutrophil accumulation: 40%
[2]
  in vitro cytotoxicity to K562 cells: no cytotoxicity
[3]
  binding of K562 E320A to Fg: selectively increased
[4]; K562 CD11b/CD18 cells, immobilized Fg, read-out: EC50 (effective concentration for 50% increase in adhesion), CD11b/CD18 dependent cell adhesion to Fg
  EC50: 4 µM
[4]; cell-based adhesion assay
  relative affinity for CD11b/CD18 compared with IMB-10: higher affinity
